The target in one assay is hNAMPT protein (Homo sapiens (Human), UniProt P43490). As to the kind of experiment: NAMPT enzyme assay (TR-FRET/HTRF, BodiPY ligand, anti 6His-Tb). The assay is classed as binding. To be noted: for pIC50: NAMPT IC50 range class, read-out: IC50; for inhibition at 1 µM: read-out: Percent Inhibition. The gist of the method: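 Compound or DMSO was incubated for 1 h at room temperature, protected from light, with BodiPY ligand and hNAMPT labelled by terbium anti-6His antibody. The 520 nm to 486 nm emission ratio after 320 nm excitation gave inhibition versus vehicle, from which concentration-response curves yielded IC50.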
For orientation: In TR-FRET formats the signal depends on donor and acceptor labels being close together.

The next assay deals with PC3 cells. As to the kind of experiment: PC3 growth inhibition (Cell-titer glo, 72 hours). The assay is classed as cell-based. To be noted: Homo sapiens, PC-3, PC3 cells, 72 hours, Cell-titer glo, read-out: Percent Inhibition (PC3 growth inhibition); for inhibition at 1 µM: compound concentration 1 μM; for inhibition at 1.667 µM: compound concentration 1.667 μM. Summed up: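 Compounds in AIM serum-free medium were applied for 72 h at 37 °C, 5% CO2 to PC3 cells plated overnight from RPMI1640 culture. Luminescence after 10 min CellTiter-Glo, normalised to DMSO, gave % viability at 1 μM or 1.667 μM, or GI50/LD50.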

The structures appear in SMILES notation. pIC50: −log10 of the molar value. Like-named read-outs stand apart in the source and are kept apart here.

hNAMPT protein, sequence (P43490 whole entry): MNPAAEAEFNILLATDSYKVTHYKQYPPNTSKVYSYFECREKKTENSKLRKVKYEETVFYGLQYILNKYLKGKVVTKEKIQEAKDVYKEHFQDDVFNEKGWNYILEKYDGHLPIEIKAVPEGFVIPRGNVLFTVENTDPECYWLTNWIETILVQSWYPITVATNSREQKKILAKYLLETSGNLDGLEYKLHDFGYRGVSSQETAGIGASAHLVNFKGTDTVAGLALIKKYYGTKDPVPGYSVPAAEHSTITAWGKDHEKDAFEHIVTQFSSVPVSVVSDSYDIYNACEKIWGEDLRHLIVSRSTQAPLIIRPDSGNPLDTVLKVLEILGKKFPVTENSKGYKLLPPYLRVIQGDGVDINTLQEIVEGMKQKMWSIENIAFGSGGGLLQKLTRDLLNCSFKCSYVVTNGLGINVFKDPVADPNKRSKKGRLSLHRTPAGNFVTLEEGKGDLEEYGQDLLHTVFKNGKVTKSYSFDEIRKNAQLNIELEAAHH

As usually defined, the pIC50 is the IC50 on a negative log10 scale, so that one unit is a factor of ten. One may read the inhibition as the change of the read-out against control, counted positive when it falls. `Cn1cnc2cc(-c3nc4ccc(C(=O)NCCCn5ccnc5)cc4nc3-c3ccccc3)ccc21` [Compound I-38, N-[3-(1H-imidazol-1-yl)propyl]-2-(1-methyl-1H-benzimidazol-5-yl)-3-phenylquinoxaline-6-carboxamide]: the pIC50 at hNAMPT protein was > 7.00. For the same molecule, the figures for the inhibition at 1 µM at hNAMPT protein (compound concentration 1 μM) and in the assay on PC3 cells were 94% and -8%, respectively.
Consider `O=C(NCCCc1ncc[nH]1)c1ccc2nc(N3CCOCC3)c(-c3ccc(F)cc3)nc2c1` [Compound I-39, 3-(4-fluorophenyl)-N-[3-(1H-imidazol-2-yl)propyl]-2-(morpholin-4-yl)quinoxaline-6-carboxamide], for which the pIC50 at hNAMPT protein was > 7.00. Besides, the inhibition at 1 µM on hNAMPT protein (compound concentration 1 μM) was determined as 97%. For the same molecule, in the assay with PC3 cells, the inhibition at 1.667 µM was determined as 2%.
For `O=C(NCCCn1ccnc1)c1ccc2nc(-c3ccccc3)c(-c3cncnc3)nc2c1` [Compound I-41, N-[3-(1H-imidazol-1-yl)propyl]-2-phenyl-3-(pyrimidin-5-yl)quinoxaline-6-carboxamide], the pIC50 at hNAMPT protein was 5.00 to 5.70. The values for the inhibition at 1 µM at hNAMPT protein (compound concentration 1 μM) and with PC3 cells were 17% and 5%, respectively.
As for `O=C(NCCCc1nccs1)c1ccc2nc(N3CCC(N4CCOCC4)CC3)c(-c3ccc(F)cc3)nc2c1` [Compound I-42, 3-(4-fluorophenyl)-2-[4-(morpholin-4-yl)piperidin-1-yl]-N-[3-(1,3-thiazol-2-yl)propyl]quinoxaline-6-carboxamide], the pIC50 on hNAMPT protein was > 7.00. Also, the inhibition at 1 µM on hNAMPT protein (compound concentration 1 μM) came to 96%. Also, in the assay on PC3 cells, the inhibition at 1.667 µM is > 99%.
`O=C(NCCc1ccc2[nH]cnc2c1)c1ccc2nc(-c3ccc(F)cc3)c(-c3ccc(F)cc3)nc2c1` [Compound I-43, N-[2-(1H-benzimidazol-5-yl)ethyl]-2,3-bis(4-fluorophenyl)quinoxaline-6-carboxamide]: the pIC50 at hNAMPT protein is 5.00 to 5.70. The inhibition at 1 µM on hNAMPT protein (compound concentration 1 μM) came to 23%; with PC3 cells it was 16%.
As for `O=C(NCCCc1ncc[nH]1)c1ccc2nc(N3CCC(N4CCOCC4)CC3)c(-c3cccs3)nc2c1` [Compound I-44, N-[3-(1H-imidazol-2-yl)propyl]-2-[4-(morpholin-4-yl)piperidin-1-yl]-3-(2-thienyl)quinoxaline-6-carboxamide], the pIC50 on hNAMPT protein was > 7.00. For the same molecule, the inhibition at 1 µM on hNAMPT protein (compound concentration 1 μM) is > 99%. The inhibition at 1.667 µM with PC3 cells came to 33%.
Take `O=C(NCCCn1ccnc1)c1ccc2nc(-c3ccc(Cl)cc3)c(-c3ccccc3)nc2c1` [Compound I-45, 2-(4-chlorophenyl)-N-[3-(1H-imidazol-1-yl)propyl]-3-phenylquinoxaline-6-carboxamide]: at hNAMPT protein, the pIC50 was 6.30 to 7.00. For the same molecule, the inhibition at 1 µM on hNAMPT protein (compound concentration 1 μM) was 50%; in the assay on PC3 cells it was -6%.
`COc1cccc(-c2nc3cc(C(=O)NCCCc4cccnc4)ccc3nc2N2CCC(O)CC2)c1` [Compound I-46, 2-(4-hydroxypiperidin-1-yl)-3-(3-methoxyphenyl)-N-[3-(pyridin-3-yl)propyl]quinoxaline-6-carboxamide]: the negative logarithm of the IC50 (pIC50) on hNAMPT protein was > 7.00. Moreover, on hNAMPT protein (compound concentration 1 μM), the inhibition at 1 µM came out at 98%. Further, the inhibition at 1.852 µM in the assay with PC3 cells (compound concentration 1.852 μM) turned out to be 2%.
For the molecule `O=C(NCCCc1ccnnc1)c1ccc2nc(N3CCOCC3)c(-c3ccc(F)cc3)nc2c1` [Compound I-47, 3-(4-Fluorophenyl)-2-(morpholin-4-yl)-N-[3-(pyridazin-4-yl)propyl]quinoxaline-6-carboxamide], on hNAMPT protein, the pIC50 was > 7.00 and the inhibition at 1 µM is 90%. In the assay with PC3 cells, the inhibition at 1.667 µM is 33%.
Consider `CS(=O)(=O)Nc1cccc(-c2nc3cc(C(=O)NCCCn4ccnc4)ccc3nc2-c2ccccc2)c1` [Compound I-48, N-[3-(1H-imidazol-1-yl)propyl]-3-{3-[(methylsulfonyl)amino]phenyl}-2-phenylquinoxaline-6-carboxamide], for which the pIC50 at hNAMPT protein is 6.30 to 7.00. The inhibition at 1 µM was determined as 87% at hNAMPT protein (compound concentration 1 μM) and 1% with PC3 cells.
For `O=C(NCCCn1ccnc1)c1ccc2nc(-c3cn[nH]c3)c(-c3ccccc3)nc2c1` [Compound I-49, N-[3-(1H-imidazol-1-yl)propyl]-3-phenyl-2-(1H-pyrazol-4-yl)quinoxaline-6-carboxamide] the same measures were 6.00 to 6.30, 56% and 8%.
With `O=C(NCCCc1ncc[nH]1)c1ccc2nc(Cl)c(-c3ccc(Cl)cc3)nc2c1` [Compound I-50, 2-chloro-3-(4-chlorophenyl)-N-[3-(1H-imidazol-2-yl)propyl]quinoxaline-6-carboxamide], the pIC50 on hNAMPT protein was > 7.00. The inhibition at 1 µM on hNAMPT protein (compound concentration 1 μM) stood at 87%. Moreover, the inhibition at 1.667 µM in the assay on PC3 cells is 96%.
On to `CC(=O)N1CCN(c2nc3ccc(C(=O)NCCCn4ccnc4)cc3nc2-c2ccccc2)CC1` [Compound I-51, 2-(4-acetylpiperazin-1-yl)-N-[3-(1H-imidazol-1-yl)propyl]-3-phenylquinoxaline-6-carboxamide], for which the pIC50 at hNAMPT protein is 6.30 to 7.00. For the same molecule, the inhibition at 1 µM on hNAMPT protein (compound concentration 1 μM) was 81%; with PC3 cells, -7%.
With `COc1cccc(-c2nc3ccc(C(=O)NCCCn4ccnc4)cc3nc2-c2cccc(OC)c2)c1` [Compound I-52, N-[3-(1H-imidazol-1-yl)propyl]-2,3-bis(3-methoxyphenyl)quinoxaline-6-carboxamide], on hNAMPT protein, the pIC50 is > 7.00. Besides, the inhibition at 1 µM on hNAMPT protein (compound concentration 1 μM) stood at 103%; in the assay on PC3 cells, 0%.
As to `Cn1cncc1CCNC(=O)c1ccc2nc(-c3ccc(F)cc3)c(-c3ccc(F)cc3)nc2c1` [Compound I-53, 2,3-bis(4-fluorophenyl)-N-[2-(1-methyl-1H-imidazol-5-yl)ethyl]quinoxaline-6-carboxamide], on hNAMPT protein, the pIC50 was 6.30 to 7.00. Also, the inhibition at 1 µM on hNAMPT protein (compound concentration 1 μM) was 77%; in the assay with PC3 cells, -6%.
For `N#Cc1ccccc1-c1nc2ccc(C(=O)NCCCn3ccnc3)cc2nc1-c1ccccc1` [Compound I-54, 2-(2-cyanophenyl)-N-[3-(1H-imidazol-1-yl)propyl]-3-phenylquinoxaline-6-carboxamide] the same measures were 6.00 to 6.30, 50% and -7%.
In the case of `COc1cccc(-c2nc3cc(C(=O)NCCCn4ccnc4)ccc3nc2N2CCOCC2)c1` [Compound I-55, N-[3-(1H-imidazol-1-yl)propyl]-3-(3-methoxyphenyl)-2-(morpholin-4-yl)quinoxaline-6-carboxamide], the negative-log IC50 (pIC50) on hNAMPT protein was > 7.00. Moreover, the inhibition at 1 µM at hNAMPT protein (compound concentration 1 μM) was 102%; in the assay with PC3 cells, -7%.
With `O=C(c1ccc2nc(-c3ccc(F)cc3)c(-c3ccc(F)cc3)nc2c1)N1CCn2ccnc2C1` [Compound I-56, [2,3-bis(4-fluorophenyl)quinoxalin-6-yl](5,6-dihydroimidazo[1,2-a]pyrazin-7(8H)-yl)methanone], the pIC50 at hNAMPT protein is 5.00 to 5.70. Further, the inhibition at 1 µM is 33% on hNAMPT protein (compound concentration 1 μM) and 104% in the assay with PC3 cells.
`Cc1nccn1CCCNC(=O)c1ccc2nc(-c3ccc(F)cc3)c(-c3ccc(F)cc3)nc2c1` [Compound I-57, 2,3-bis(4-fluorophenyl)-N-[3-(2-methyl-1H-imidazol-1-yl)propyl]quinoxaline-6-carboxamide]: at hNAMPT protein, the pIC50 was > 7.00. Besides, the inhibition at 1 µM on hNAMPT protein (compound concentration 1 μM) was found to be 96%; with PC3 cells, 45%.

Source of the values: patent US10144742B2 (Millennium Pharmaceuticals, Inc., priority 2014, dated 2018).
